From US20040106545A1, “Compounds and methods for modulating cell adhesion” (priority 1996, published 2004)
Read-outs that look alike come from different tables or passages of the source. Positions of bridges follow the written chain, without caps; N, C: chain ends. Residues, ends and D or L forms follow the SMILES beside them.

Assays:
N-cadherin = target: T1, N-cadherin (Gallus gallus, UniProt P10288); experiment: Neurite outgrowth inhibition, rat neurons (Example 21); assay type: cell-based; conditions: 250 μg/mL; for inhibition at 250 µg/mL: read-out: % Inhibition of neurite outgrowth
T1 construct: expressed in transfected cells; host or cells: 3T3 fibroblasts (monolayer)
T1 sequence (P10288 165-912): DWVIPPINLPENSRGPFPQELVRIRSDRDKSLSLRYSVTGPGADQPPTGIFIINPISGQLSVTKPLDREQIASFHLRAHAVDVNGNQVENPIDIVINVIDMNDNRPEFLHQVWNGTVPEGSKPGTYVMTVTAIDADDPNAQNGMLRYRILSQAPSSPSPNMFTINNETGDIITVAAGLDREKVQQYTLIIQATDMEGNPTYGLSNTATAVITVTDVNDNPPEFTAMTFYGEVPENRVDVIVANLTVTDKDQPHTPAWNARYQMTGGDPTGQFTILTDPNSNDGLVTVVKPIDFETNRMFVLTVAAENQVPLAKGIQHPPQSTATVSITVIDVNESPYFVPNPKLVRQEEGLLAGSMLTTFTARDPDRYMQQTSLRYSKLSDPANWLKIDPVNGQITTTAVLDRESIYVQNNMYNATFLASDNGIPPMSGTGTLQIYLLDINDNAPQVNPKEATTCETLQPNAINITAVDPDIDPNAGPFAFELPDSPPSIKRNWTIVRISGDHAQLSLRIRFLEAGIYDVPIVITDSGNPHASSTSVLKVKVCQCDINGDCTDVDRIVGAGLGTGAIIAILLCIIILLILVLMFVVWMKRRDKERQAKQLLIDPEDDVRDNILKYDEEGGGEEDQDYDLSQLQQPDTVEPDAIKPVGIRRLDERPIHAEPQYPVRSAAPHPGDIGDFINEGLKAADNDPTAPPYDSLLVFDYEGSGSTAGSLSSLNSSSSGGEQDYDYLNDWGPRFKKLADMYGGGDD

[1] = Cytotoxicity, MTT assay, PC-3; assay type: cell-based, human; conditions: human, MTT assay, read-out: PC-3 Cytotox (IC50)
Procedure, shortened: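 Cytotoxicity of N-Ac-CHAVC-NH2 and the control peptide N-Ac-CHGVC-NH2 was assessed by MTT reduction in human endothelial, fibroblast and cancer cell lines at concentrations up to 100 μM. Proliferation was measured separately by ^3H-thymidine incorporation over the same concentration range.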

chick N-cadherin = target: T2, chick N-cadherin (Gallus gallus, UniProt P10288); experiment: Neurite outgrowth of rat cerebellar neurons on N-cadherin expressing 3T3 monolayers (Example 15); assay type: cell-based; conditions: for effect on neurite outgrowth over N-cadherin expressing cells (in words): 500 μg/mL; for inhibitory activity on N-cadherin dependent neurite outgrowth, structure/activity statements: Tables 8 and 9
T2 construct: expressed in transfected cells; host or cells: 3T3 fibroblasts (monolayer); rat post-natal day 2-3 cerebellar neurons plated on top
T2 sequence (P10288 165-912): T1 sequence (P10288 165-912)

inhibition at 250 µg/mL (N-cadherin) [%]	inhibition of N-cadherin dependent neurite outgrowth (in words) (chick N-cadherin; 250 μg/mL)	activity on N-cadherin dependent neurite outgrowth (in words) (chick N-cadherin; 125 micrograms/mL or below)	SMILES	IC50 ([1]; PC-3 cells (human prostate cancer cell line)) [µM]	effect on neurite outgrowth over N-cadherin expressing cells (in words) (chick N-cadherin)	inhibitory activity on N-cadherin dependent neurite outgrowth, structure/activity statements (chick N-cadherin)	inhibition of neurite outgrowth (in words) (N-cadherin)	IC50 ([1]; PC-3 prostate cancer cell line) [µM]	effect on the N-cadherin response (chick N-cadherin; concentrations up to 62 μg/ml)
0	–	–	CC(=O)N[C@H]1CSSC[C@@H](C(N)=O)NC(=O)[C@H](C(C)C)NC(=O)CNC(=O)[C@H](Cc2c[nH]cn2)NC1=O [N—Ac—CHGVC—NH2, reference compound]	> 100	had no effect on neurite outgrowth	–	–	–	–
–	–	–	CC(=O)N[C@H]1CSSC[C@@H](C(N)=O)NC(=O)[C@H](CC(=O)O)NC(=O)[C@H](C(C)C)NC(=O)[C@H](C)NC(=O)[C@H](Cc2c[nH]cn2)NC(=O)[C@H](C)NC1=O [N—Ac—CAHAVDC—NH2, N-Ac-Cys-Ala-His-Ala-Val-Asp-Cys-NH2] (Ac-CAHAVDC-NH2; disulfide 1-7)	–	–	completely eliminated inhibitory activity	–	–	–
82	potent inhibitors of neurite outgrowth	lost activity	CC[C@H](C)[C@@H]1NC(=O)[C@H](CC(=O)O)NC(=O)[C@H](C(C)C)NC(=O)[C@H](C)NC(=O)[C@H](Cc2c[nH]cn2)NC(=O)[C@H](C)NC(=O)[C@@H](NC(C)=O)CSSC[C@@H](C(N)=O)NC1=O (Ac-CAHAVDIC-NH2; disulfide 1-8)	–	–	reduced, but did not eliminate, the activity	–	–	–

SMILES	inhibition at 250 µg/mL (N-cadherin) [%]	inhibition of N-cadherin dependent neurite outgrowth (in words) (chick N-cadherin; 250 μg/mL)	activity on N-cadherin dependent neurite outgrowth (in words) (chick N-cadherin; 125 micrograms/mL or below)	IC50 ([1]; PC-3 cells (human prostate cancer cell line)) [µM]	effect on neurite outgrowth over N-cadherin expressing cells (in words) (chick N-cadherin)	inhibitory activity on N-cadherin dependent neurite outgrowth, structure/activity statements (chick N-cadherin)	inhibition of neurite outgrowth (in words) (N-cadherin)	IC50 ([1]; PC-3 prostate cancer cell line) [µM]	effect on the N-cadherin response (chick N-cadherin; concentrations up to 62 μg/ml)
CC(=O)N[C@H]1CSSC[C@@H](C(N)=O)NC(=O)[C@H](C(C)C)NC(=O)[C@H](C)NC(=O)[C@H](Cc2c[nH]cn2)NC1=O [N—Ac—CHAVC—NH2, N-Ac-Cys-His-Ala-Val-Cys-NH2]	65	–	–	–	inhibition of neurite outgrowth	–	significantly inhibited neurite outgrowth	> 100	no significant effect on the N-cadherin response
